Laboratory results as given in patent US11225505B2, “Antimicrobial polymyxin derivative compounds” (MONASH UNIVERSITY, priority 2015, dated 2022).
≈ marks a conversion by molar mass, not a printed value. Like-named read-outs stand apart in the source and are kept apart here. Where a SMILES comes first, the peptide text is derived from it. Bridges are numbered along the chain shown (N, C = ends). [ ]: non-standard residue; d: D form. The star is where a group is joined. Isoxazole(3-CO,5-Ph) = O=C(c1cc(-c2ccccc2)on1)*; Nicotinoyl(6-CF3) = O=C(c1ccc(C(F)(F)F)nc1)*; Benzofuran(2-CO) = O=C(c1cc2ccccc2o1)*; X66 = O=C(c1c[nH]c(-c2ccccc2)n1)*; X63 = O=C(c1ccc(C(F)(F)F)nc1Cl)*; X27 = O=C(c1sc2ccccc2c1Cl)*; X38 = O=C(c1cc2sccc2[nH]1)*; Dab = NCC[C@H](N)C(=O)O; Abu = CC[C@H](N)C(=O)O; Dap = NC[C@H](N)C(=O)O

Tests used:
Format in all cases: cell-based
[1] = system: Acinetobacter baumannii ATCC 17978
Procedure, shortened: (§1)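 Antibacterial activity is given as MIC from microdilution in CAMHB under the CLSI M100-S24 standard. P. aeruginosa FADDI-PA022 and A. baumannii FADDI-AB034 are multidrug-resistant clinical isolates, while ATCC 17978 is a reference strain.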

[2] = system: Acinetobacter baumannii FADDI-AB034
Procedure, shortened: as §1

[3] = system: Enterobacter cloacae FADDI-EC001
Procedure, shortened: (§2)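 Broth microdilution, CAMHB, per CLSI M100-S24; lipopeptides as TFA salts; polymyxin B sulphate control. Read-out: MIC. Strains are polymyxin-susceptible; PA022 and AB034 are MDR clinical isolates.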

[4] = system: Enterobacter cloacae FADDI-EC003
Procedure, shortened: as §1

[5] = system: Enterobacter cloacae FADDI-EC006
Procedure, shortened: as §1

[6] = system: Klebsiella pneumoniae FADDI-KP022
Procedure, shortened: as §1

[7] = system: Klebsiella pneumoniae FADDI-KP032
Procedure, shortened: as §1

[8] = system: Klebsiella pneumoniae Kp BM1
Procedure, shortened: as §2

[9] = system: Pseudomonas aeruginosa ATCC 27853
Procedure, shortened: as §1

[10] = system: Pseudomonas aeruginosa FADDI-PA01
Procedure, shortened: as §1

[11] = system: Pseudomonas aeruginosa FADDI-PA022
Procedure, shortened: as §1

[12] = system: Pseudomonas aeruginosa FADDI-PA038
Procedure, shortened: as §1

[13] = system: Acinetobacter baumannii FADDI-AB030; experiment: microbe, parasite or virus in culture
Procedure, shortened: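 Broth microdilution MIC in cation-adjusted Mueller-Hinton broth per CLSI M100-S24; lipopeptides tested as TFA salts. FADDI-AB030 is a multidrug-resistant clinical isolate. Polymyxin B sulphate served as control.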

Compound	Minimum inhibitory concentration ([1]; ATCC 17978)	Minimum inhibitory concentration ([2]; FADDI-AB034)	Minimum inhibitory concentration ([3]; FADDI-EC001)	Minimum inhibitory concentration ([4]; FADDI-EC003)	Minimum inhibitory concentration ([5]; FADDI-EC006)	Minimum inhibitory concentration ([6]; FADDI-KP022)	Minimum inhibitory concentration ([7]; FADDI-KP032)	Minimum inhibitory concentration ([8]; Kp BM1)	Minimum inhibitory concentration ([9]; ATCC 27853)	Minimum inhibitory concentration ([10]; FADDI-)	Minimum inhibitory concentration ([11]; FADDI-PA022)	Minimum inhibitory concentration ([12]; FADDI-PA038)	Minimum inhibitory concentration ([13]; FADDI-AB030)	other results
CC[C@@H]1NC(=O)[C@@H](CC(C)C)NC(=O)[C@H](CCN)NC(=O)[C@@H](NC(=O)[C@H](CN)NC(=O)[C@@H](NC(=O)[C@H](CCN)NC(=O)c2cc(-c3ccccc3)on2)[C@@H](C)O)CCNC(=O)[C@H]([C@@H](C)O)NC(=O)[C@H](CCN)NC(=O)[C@H](CCN)NC1=O [Compound 80] ({Isoxazole(3-CO,5-Ph)}-[Dab]T[Dap][Dab][Dab][dL][Abu][Dab][Dab]T; lactam 4-C)	0.5 µg/mL (≈ 0.432 µM)	0.5 µg/mL (≈ 0.432 µM)	0.25 µg/mL (≈ 0.216 µM)	0.25 µg/mL (≈ 0.216 µM)	0.25 µg/mL (≈ 0.216 µM)	<0.125 µg/mL	0.25 µg/mL (≈ 0.216 µM)	0.25 µg/mL (≈ 0.216 µM)	0.5 µg/mL (≈ 0.432 µM)	0.5 µg/mL (≈ 0.432 µM)	0.5 µg/mL (≈ 0.432 µM)	0.5 µg/mL (≈ 0.432 µM)	0.5 µg/mL (≈ 0.432 µM)	–
CC[C@@H]1NC(=O)[C@@H](CC(C)C)NC(=O)[C@H](CCN)NC(=O)[C@@H](NC(=O)[C@H](CN)NC(=O)[C@@H](NC(=O)[C@H](CCN)NC(=O)c2cc3ccccc3o2)[C@@H](C)O)CCNC(=O)[C@H]([C@@H](C)O)NC(=O)[C@H](CCN)NC(=O)[C@H](CCN)NC1=O [Compound 92] ({Benzofuran(2-CO)}-[Dab]T[Dap][Dab][Dab][dL][Abu][Dab][Dab]T; lactam 4-C)	1 µg/mL (≈ 0.884 µM)	0.5 µg/mL (≈ 0.442 µM)	<0.125 µg/mL	0.25 µg/mL (≈ 0.221 µM)	<0.125 µg/mL	<0.125 µg/mL	0.5 µg/mL (≈ 0.442 µM)	0.5 µg/mL (≈ 0.442 µM)	0.5 µg/mL (≈ 0.442 µM)	0.5 µg/mL (≈ 0.442 µM)	0.5 µg/mL (≈ 0.442 µM)	0.5 µg/mL (≈ 0.442 µM)	0.5 µg/mL (≈ 0.442 µM)	–
CC[C@@H]1NC(=O)[C@@H](CC(C)C)NC(=O)[C@H](CCN)NC(=O)[C@@H](NC(=O)[C@H](CN)NC(=O)[C@@H](NC(=O)[C@H](CCN)NC(=O)c2sc3ccccc3c2Cl)[C@@H](C)O)CCNC(=O)[C@H]([C@@H](C)O)NC(=O)[C@H](CCN)NC(=O)[C@H](CCN)NC1=O [Compound 61] (X27-[Dab]T[Dap][Dab][Dab][dL][Abu][Dab][Dab]T; lactam 4-C)	<0.125 µg/mL	<0.125 µg/mL	0.25 µg/mL (≈ 0.212 µM)	<0.125 µg/mL	<0.125 µg/mL	<0.125 µg/mL	<0.125 µg/mL	0.25 µg/mL (≈ 0.212 µM)	0.25 µg/mL (≈ 0.212 µM)	<0.125 µg/mL	0.25 µg/mL (≈ 0.212 µM)	0.25 µg/mL (≈ 0.212 µM)	<0.125 µg/mL	–
CC[C@@H]1NC(=O)[C@@H](CC(C)C)NC(=O)[C@H](CCN)NC(=O)[C@@H](NC(=O)[C@H](CN)NC(=O)[C@@H](NC(=O)[C@H](CCN)NC(=O)c2cc3sccc3[nH]2)[C@@H](C)O)CCNC(=O)[C@H]([C@@H](C)O)NC(=O)[C@H](CCN)NC(=O)[C@H](CCN)NC1=O [Compound 90] (X38-[Dab]T[Dap][Dab][Dab][dL][Abu][Dab][Dab]T; lactam 4-C)	2 µg/mL (≈ 1.76 µM)	1 µg/mL (≈ 0.88 µM)	<0.125 µg/mL	<0.125 µg/mL	0.5 µg/mL (≈ 0.44 µM)	<0.125 µg/mL	0.25 µg/mL (≈ 0.22 µM)	0.25 µg/mL (≈ 0.22 µM)	0.5 µg/mL (≈ 0.44 µM)	0.25 µg/mL (≈ 0.22 µM)	0.5 µg/mL (≈ 0.44 µM)	0.5 µg/mL (≈ 0.44 µM)	0.5 µg/mL (≈ 0.44 µM)	–
CC[C@@H]1NC(=O)[C@@H](CC(C)C)NC(=O)[C@H](CCN)NC(=O)[C@@H](NC(=O)[C@H](CN)NC(=O)[C@@H](NC(=O)[C@H](CCN)NC(=O)c2c[nH]c(-c3ccccc3)n2)[C@@H](C)O)CCNC(=O)[C@H]([C@@H](C)O)NC(=O)[C@H](CCN)NC(=O)[C@H](CCN)NC1=O [Compound 82] (X66-[Dab]T[Dap][Dab][Dab][dL][Abu][Dab][Dab]T; lactam 4-C)	–	–	–	–	–	–	–	–	–	–	–	–	–	Minimum inhibitory concentration ([1]; A. baumannii ATCC 17978, CAMHB broth microdilution): 2 µg/mL (≈ 1.73 µM); Minimum inhibitory concentration ([2]; A. baumannii FADDI-AB034, CAMHB broth microdilution): 8 µg/mL (≈ 6.91 µM); Minimum inhibitory concentration ([3]; E. cloacae FADDI-EC001, CAMHB broth microdilution): 0.25 µg/mL (≈ 0.216 µM); Minimum inhibitory concentration ([4]; E. cloacae FADDI-EC003, CAMHB broth microdilution): 0.25 µg/mL (≈ 0.216 µM); Minimum inhibitory concentration ([5]; E. cloacae FADDI-EC006, CAMHB broth microdilution): 0.5 µg/mL (≈ 0.432 µM); Minimum inhibitory concentration ([6]; K. pneumoniae FADDI-KP022, CAMHB broth microdilution): <0.125 µg/mL; Minimum inhibitory concentration ([7]; K. pneumoniae FADDI-KP032, CAMHB broth microdilution): 0.5 µg/mL (≈ 0.432 µM); Minimum inhibitory concentration ([8]; K. pneumoniae Kp BM1, CAMHB broth microdilution): 1 µg/mL (≈ 0.864 µM); Minimum inhibitory concentration ([9]; P. aeruginosa ATCC 27853, CAMHB broth microdilution): 0.5 µg/mL (≈ 0.432 µM); Minimum inhibitory concentration ([10]; P. aeruginosa FADDI-PA01, CAMHB broth microdilution): 0.5 µg/mL (≈ 0.432 µM); Minimum inhibitory concentration ([11]; P. aeruginosa FADDI-PA022, CAMHB broth microdilution): 0.5 µg/mL (≈ 0.432 µM); Minimum inhibitory concentration ([12]; P. aeruginosa FADDI-PA038, CAMHB broth microdilution): 2 µg/mL (≈ 1.73 µM); Minimum inhibitory concentration ([13]; A. baumannii FADDI-AB030, CAMHB broth microdilution): 4 µg/mL (≈ 3.46 µM)
CC[C@@H]1NC(=O)[C@@H](CC(C)C)NC(=O)[C@H](CCN)NC(=O)[C@@H](NC(=O)[C@H](CN)NC(=O)[C@@H](NC(=O)[C@H](CCN)NC(=O)c2ccc(C(F)(F)F)nc2Cl)[C@@H](C)O)CCNC(=O)[C@H]([C@@H](C)O)NC(=O)[C@H](CCN)NC(=O)[C@H](CCN)NC1=O [Compound 40] (X63-[Dab]T[Dap][Dab][Dab][dL][Abu][Dab][Dab]T; lactam 4-C)	0.5 µg/mL (≈ 0.419 µM)	<0.125 µg/mL	<0.125 µg/mL	<0.125 µg/mL	<0.125 µg/mL	<0.125 µg/mL	<0.125 µg/mL	<0.125 µg/mL	0.5 µg/mL (≈ 0.419 µM)	0.5 µg/mL (≈ 0.419 µM)	0.5 µg/mL (≈ 0.419 µM)	1 µg/mL (≈ 0.837 µM)	<0.125 µg/mL	–
CC[C@@H]1NC(=O)[C@@H](CC(C)C)NC(=O)[C@H](CCN)NC(=O)[C@@H](NC(=O)[C@H](CN)NC(=O)[C@@H](NC(=O)[C@H](CCN)NC(=O)c2ccc(C(F)(F)F)nc2)[C@@H](C)O)CCNC(=O)[C@H]([C@@H](C)O)NC(=O)[C@H](CCN)NC(=O)[C@H](CCN)NC1=O [Compound 3] ({Nicotinoyl(6-CF3)}-[Dab]T[Dap][Dab][Dab][dL][Abu][Dab][Dab]T; lactam 4-C)	1 µg/mL (≈ 0.862 µM)	1 µg/mL (≈ 0.862 µM)	0.5 µg/mL (≈ 0.431 µM)	0.25 µg/mL (≈ 0.215 µM)	1 µg/mL (≈ 0.862 µM)	<0.125 µg/mL	0.25 µg/mL (≈ 0.215 µM)	1 µg/mL (≈ 0.862 µM)	0.5 µg/mL (≈ 0.431 µM)	0.5 µg/mL (≈ 0.431 µM)	1 µg/mL (≈ 0.862 µM)	1 µg/mL (≈ 0.862 µM)	1 µg/mL (≈ 0.862 µM)	–
